Biological target: T1, hKv3.1b (Homo sapiens, UniProt P48547)
T1 construct: expressed in transfected cells
T1 sequence (P48547 1-585 isoform P48547-2): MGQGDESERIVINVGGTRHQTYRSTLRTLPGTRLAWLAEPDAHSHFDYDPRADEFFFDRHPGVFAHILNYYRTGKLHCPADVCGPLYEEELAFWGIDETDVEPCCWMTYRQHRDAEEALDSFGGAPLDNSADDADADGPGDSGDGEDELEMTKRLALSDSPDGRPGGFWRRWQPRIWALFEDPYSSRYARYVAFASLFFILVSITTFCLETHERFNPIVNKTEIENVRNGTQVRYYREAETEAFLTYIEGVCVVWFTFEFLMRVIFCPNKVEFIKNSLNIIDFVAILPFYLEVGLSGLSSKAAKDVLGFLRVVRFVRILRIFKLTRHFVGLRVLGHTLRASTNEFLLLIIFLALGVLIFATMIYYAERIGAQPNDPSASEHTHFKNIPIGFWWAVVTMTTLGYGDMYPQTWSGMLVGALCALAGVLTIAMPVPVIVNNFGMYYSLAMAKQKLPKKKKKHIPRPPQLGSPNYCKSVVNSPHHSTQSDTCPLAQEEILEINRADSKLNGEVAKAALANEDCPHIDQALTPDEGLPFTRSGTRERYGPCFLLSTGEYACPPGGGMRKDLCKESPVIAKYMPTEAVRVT
Test: Automated whole-cell patch-clamp (QPatch-16x) on HEK-293 cells stably expressing hKv3.1b: shift of voltage threshold for channel activation
Type: cell-based
Conditions: HEK-293 hKv3.1b; for ECdelta5mV: concentration needed to shift the threshold 5 mV, read out from fitted concentration response curve; for Max Delta threshold: maximum absolute shift of activation threshold to more hyperpolarized potentials at the tested concentrations (0.37, 1.11, 3.33, 10, 30 μM)
Experimental: HEK-293 cells stably expressing hKv3.1b was used for the experiments. Cells were cultured in DMEM medium supplemented with 10% Fetal Bovine Serum, 100 ug/mL Geneticidin and 100 u/mL Penicillin/Streptomycin (all from Gibco). Cells were grown to 80-90% confluency at 37° C. and 5% CO2. On the day of the experiment the cells were detached from the tissue culture flasks by Detachin and resuspended in serum free medium containing 25 mM HEPES and transferred to the cell hotel of the QPatch. The cells were used for experiments 0-5 hours after detachment.
Patch-clamp recordings were performed using the automated recording system QPatch-16x (Sophion Bioscience, Denmark). Cells were centrifuged, SFM removed and the cells were resuspended in extracellular buffer containing (in mM): 145 NaCl, 4 KCl, 1 MgCl2, 2 CaCl2, 10 HEPES and 10 glucose (added fresh on the day of experiment); pH 7.4 adjusted with NaOH, 305 mOsm adjusted with sucrose.
Single cell whole-cell recordings were carried out using an intracellular solution containing (in mM): 120 KCl, 32.25/10 KOH/EGTA, 5.374 CaCl2, 1.75 MgCl2, 10 HEPES, 4 Na2ATP (added fresh on the day), pH 7.2 adjusted with KOH, […] adjusted with sucrose. Cell membrane potentials were held at −80 mV and currents were evoked by voltage steps (200 ms duration) from −70 mV to +10 mV (in 10 mV increments).
Leak subtraction protocol was applied at −33% of the sweep amplitude, and serial resistance values were constantly monitored.
Any cell where serial resistance exceeded 25 MOhm, membrane resistance less than 200 MOhm or current size at −10 mV less than 200 pA was eliminated from the subsequent analysis.
Data analysis was performed using Sophion's QPatch assay software in combination with Microsoft Excel™ (Redmond, Wash., USA).
Current voltage relationships were plotted from the peak current at the individual voltage steps normalized to the vehicle addition at 10 mV. The voltage threshold for channel activation was defined as 5% activation of the peak current at 10 mV in presence of vehicle. The activity of the compounds was described as the ability to shift this current voltage relationship to more hyperpolarized potentials and is given as the maximum absolute shift possible at the tested concentrations (0.37, 1.11, 3.33, 10, 30 μM). Concentration response curves were plotted from the threshold shift at the individual concentrations and were fitted excel fit model 205 sigmodal dose-response model (fit=A+((B−A)/1+((C/x)^D)))), where A is the minimum value, B the maximum value, C the EC50 value and D the slope of the curve. The concentration needed to shift the threshold 5 mV was readout from this curve (ECdelta 5 mV).

Row | SMILES | ECdelta5mV | Max Delta threshold
1 | Cc1ccc(S(=O)(=O)n2cc(C)c(C(=O)NCc3cnc(C)cn3)n2)cc1 [Compound 32, 4-methyl-1-(4-methylbenzene-1-sulfonyl)-N-[(5-methylpyrazin-2-yl)methyl]-1H-pyrazole-3-carboxamide] | 4300 nM | 12 mV
2 | Cc1ccc(S(=O)(=O)n2ccc(C(=O)NCc3cnc(C)cn3)n2)c(C)c1 [Compound 77, 1-(2,4-dimethylphenyl)sulfonyl-N-[(5-methylpyrazin-2-yl)methyl]pyrazole-3-carboxamide] | 1100 nM | 29 mV
3 | COc1ccc(S(=O)(=O)n2ccc(C(=O)NCc3cncnc3)n2)cc1 [Compound 7, 1-(4-methoxybenzene-1-sulfonyl)-N-[(pyrimidin-5-yl)methyl]-1H-pyrazole-3-carboxamide] | 2900 nM | 18 mV
4 | Cc1ccc(S(=O)(=O)n2ccc(C(=O)NCc3nc(C)no3)n2)cc1 [Compound 48, 1-(4-methylbenzene-1-sulfonyl)-N-[(3-methyl-1,2,4-oxadiazol-5-yl)methyl]-1H-pyrazole-3-carboxamide] | 1500 nM | 24 mV
5 | COc1ccc(S(=O)(=O)n2ccc(C(=O)NCc3ccno3)n2)cc1 [Compound 10, 1-(4-methoxybenzene-1-sulfonyl)-N-[(1,2-oxazol-5-yl)methyl]-1H-pyrazole-3-carboxamide] | 3400 nM | 17 mV
6 | Cc1ccc(CNC(=O)c2ccn(S(=O)(=O)c3cccc(C)c3)n2)nc1 [Compound 20, 1-(3-methylbenzene-1-sulfonyl)-N-[(5-methylpyridin-2-yl)methyl]-1H-pyrazole-3-carboxamide] | 3900 nM | 12 mV
7 | Cc1cnc(CNC(=O)c2ccn(S(=O)(=O)c3cc(C)c(F)c(C)c3)n2)cn1 [Compound 81, 1-(4-fluoro-3,5-dimethyl-phenyl)sulfonyl-N-[(5-methylpyrazin-2-yl)methyl]pyrazole-3-carboxamide] | 3000 nM | 17 mV
8 | Cc1cc(CNC(=O)c2ccn(S(=O)(=O)c3ccccc3C)n2)on1 [Compound 29, 1-(2-methylbenzene-1-sulfonyl)-N-[(3-methyl-1,2-oxazol-5-yl)methyl]-1H-pyrazole-3-carboxamide] | 3100 nM | 22 mV
9 | Cc1cnc(CNC(=O)c2ccn(S(=O)(=O)c3ccccc3C)n2)nc1 [Compound 25, 1-(2-methylbenzene-1-sulfonyl)-N-[(5-methylpyrimidin-2-yl)methyl]-1H-pyrazole-3-carboxamide] | 6500 nM | 13 mV
10 | Cc1cnc(CNC(=O)c2ccn(S(=O)(=O)c3ccc(Cl)cc3C)n2)cn1 [Compound 67, 1-(4-chloro-2-methyl-phenyl)sulfonyl-N-[(5-methylpyrazin-2-yl)methyl]pyrazole-3-carboxamide] | 1100 nM | 34 mV
11 | COc1ccc(S(=O)(=O)n2ccc(C(=O)NCc3ncn(C)n3)n2)cc1 [Compound 13, 1-(4-methoxybenzene-1-sulfonyl)-N-[(1-methyl-1H-1,2,4-triazol-3-yl)methyl]-1H-pyrazole-3-carboxamide] | 4000 nM | 16 mV
12 | Cc1cnc(CNC(=O)c2ccn(S(=O)(=O)c3ccc(Cl)cc3F)n2)cn1 [Compound 73, 1-(4-chloro-2-fluoro-phenyl)sulfonyl-N-[(5-methylpyrazin-2-yl)methyl]pyrazole-3-carboxamide] | 2400 nM | 33 mV
13 | Cc1cnc(CNC(=O)c2ccn(S(=O)(=O)c3ccc(C(F)F)cc3)n2)cn1 [Compound 71, 1-[4-(difluoromethyl)phenyl]sulfonyl-N-[(5-methylpyrazin-2-yl)methyl]pyrazole-3-carboxamide] | 3500 nM | 27 mV
14 | Cc1cccc(S(=O)(=O)n2ccc(C(=O)NCc3ccn(C)n3)n2)c1 [Compound 22, 1-(3-methylbenzene-1-sulfonyl)-N-[(1-methyl-1H-pyrazol-3-yl)methyl]-1H-pyrazole-3-carboxamide] | 3700 nM | 14 mV
15 | Cc1ccc(S(=O)(=O)n2ccc(C(=O)NCc3cnoc3)n2)cc1 [Compound 51, 1-(4-methylbenzene-1-sulfonyl)-N-[(1,2-oxazol-4-yl)methyl]-1H-pyrazole-3-carboxamide] | 3300 nM | 16 mV
16 | Cc1cccc(S(=O)(=O)n2ccc(C(=O)NCc3cc(C)no3)n2)c1 [Compound 19, 1-(3-methylbenzene-1-sulfonyl)-N-[(3-methyl-1,2-oxazol-5-yl)methyl]-1H-pyrazole-3-carboxamide] | 2400 nM | 17 mV
17 | Cc1cnc(CNC(=O)c2ccn(S(=O)(=O)c3ccc(OC(F)(F)F)cc3)n2)cn1 [Compound 70, N-[(5-methylpyrazin-2-yl)methyl]-1-[4-(trifluoromethoxy)phenyl]sulfonyl-pyrazole-3-carboxamide] | 4000 nM | 19 mV
18 | Cc1ccc(S(=O)(=O)n2ccc(C(=O)NCc3ncc(C)cn3)n2)cc1 [Compound 15, 1-(4-methylbenzene-1-sulfonyl)-N-[(5-methylpyrimidin-2-yl)methyl]-1H-pyrazole-3-carboxamide] | 2600 nM | 23 mV
19 | Cc1cnc(CNC(=O)c2ccn(S(=O)(=O)c3ccccc3Cl)n2)cn1 [Compound 84, 1-(2-chlorophenyl)sulfonyl-N-[(5-methylpyrazin-2-yl)methyl]pyrazole-3-carboxamide] | 7700 nM | 12 mV
20 | COc1ccc(S(=O)(=O)n2ccc(C(=O)NCc3nc(C)no3)n2)cc1 [Compound 42, 1-(4-methoxybenzene-1-sulfonyl)-N-[(3-methyl-1,2,4-oxadiazol-5-yl)methyl]-1H-pyrazole-3-carboxamide] | 2000 nM | 18 mV
21 | Cc1ccccc1S(=O)(=O)n1ccc(C(=O)NCc2ccn(C)n2)n1 [Compound 26, 1-(2-methylbenzene-1-sulfonyl)-N-[(1-methyl-1H-pyrazol-3-yl)methyl]-1H-pyrazole-3-carboxamide] | 2900 nM | 16 mV
22 | COc1ccc(S(=O)(=O)n2ccc(C(=O)NCc3cnc(C)nc3)n2)cc1 [Compound 11, 1-(4-methoxybenzene-1-sulfonyl)-N-[(2-methylpyrimidin-5-yl)methyl]-1H-pyrazole-3-carboxamide] | 2400 nM | 29 mV
23 | COc1ccc(S(=O)(=O)n2ccc(C(=O)NCc3ccn(C)n3)n2)cc1 [Compound 44, 1-(4-methoxybenzene-1-sulfonyl)-N-[(1-methyl-1H-pyrazol-3-yl)methyl]-1H-pyrazole-3-carboxamide] | 1400 nM | 25 mV
24 | Cc1cnc(CNC(=O)c2ccn(S(=O)(=O)c3c(C)cc(F)cc3C)n2)cn1 [Compound 83, 1-(4-fluoro-2,6-dimethyl-phenyl)sulfonyl-N-[(5-methylpyrazin-2-yl)methyl]pyrazole-3-carboxamide] | 2700 nM | 21 mV
